The values below come from PubChem BioAssay (NCI).

What all share (assay): NCI tumour cell line growth inhibition, 48 h
Test [1] relates to DU-145 prostate.
Test [2] has as its system SK-OV-3 ovarian.
The subject of test [3] is SNB-75 CNS.
Test [4] relates to SR leukemia.
Test [5] has as its system OVCAR-5 ovarian.
In test [6] the test system is SF-295 CNS.
Test [7] deals with A498 renal.
The subject of test [8] is HCT-15 colon.
Test [9] deals with LOX IMVI melanoma.
Test [10] relates to HCC-2998 colon.

The structures appear in SMILES notation. Several values for one entry are separate records, joined by “and”; a condition that tells them apart may be missing. Equal values may be shown once.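 Briefly, cells in 96-well plates were exposed to five compound concentrations for 48 h, and endpoints were estimated by linear interpolation. GI50 is the concentration that inhibits growth by half. TGI: total growth inhibition.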 Where only a bound is given, the exact number is not on record here.

For `COc1ccc(-c2nn3ncccc3c2-c2ccnc(Nc3ccc(Cl)c(C(F)(F)F)c3)n2)cc1`, the GI50 was 14 µM in [1]; 13.1 µM in test [2]; over 13.8 µM in [3]; 17.6 µM in test [4]; 9.39 µM in test [5]; 9.96 µM in test [6]. Besides, the GI50 is 6.52 µM in test [7], 9.97 µM in test [8], 8.95 µM in test [9] and 6.42 µM in [10]. Also, the TGI in test [1], in test [2], in [3], in test [4], in [5] and in test [6] was over 25 µM each time. Besides, the TGI in test [7] is over 25 µM; in test [8], over 25 µM; in test [9], over 25 µM; in test [10], 20.8 µM.
For `O=P(O)(CCP(=O)(O)c1ccccc1)c1ccccc1`, the TGI in [1], in [2], in test [3], in [4], in [5] and in [6] was over 100 µM throughout. Moreover, the TGI in test [7], in test [8], in test [9] and in test [10] was over 100 µM in each case.
Take `CN1CC[C@@H](c2c(O)cc(O)c3c(=O)cc(-c4ccccc4Cl)oc23)[C@@H](O)C1`: the GI50 in [1] is 0.0774 µM and 0.0902 µM; in test [2] it was 0.201 µM and 0.428 µM; in [3], 0.0975 µM; in [4], 0.014 µM; in test [5], 0.0801 µM and 0.146 µM; in test [6] it was 0.0994 µM and 0.0955 µM and 0.0425 µM. The GI50 in [7] was 0.0604 µM; in [8] it was 0.0476 µM; in [9], 0.0289 µM; in [10] it was 0.137 µM and 0.0417 µM. Besides, the TGI in [2] was over 100 µM; in [3] it was 0.25 µM and 0.0894 µM; in test [4] it was 0.0468 µM and 0.277 µM; in test [7], 0.181 µM and 1.13 µM; in test [9], over 100 µM; in test [10], 0.312 µM and 0.162 µM.
Consider `C=C1CC2(OC1=O)C(=O)N(CCCCCCCN1C(=O)C3(CC(=C)C(=O)O3)c3ccccc31)c1ccccc12` (centres undefined), for which the GI50 in [1] is 2.89 µM; in test [2], 9.97 µM; in test [3], 6.35 µM; in test [4], 0.475 µM; in test [5], 7.09 µM; in test [6] it was 10.2 µM. For the same molecule, the GI50 in test [7] is 5.17 µM; in [8], 1.3 µM; in test [9] it was 0.763 µM; in test [10] it was 6.44 µM. The TGI stood at 9.49 µM in test [1]; 37.8 µM in test [2]; 19.5 µM in test [3]; 3.58 µM in test [4]; 14.2 µM in [5]; 25 µM in test [6]. Besides, the TGI in [7] amounted to 13.1 µM; in test [8], 4.61 µM; in test [9] it was 1.54 µM; in test [10], 13.7 µM.
On to `COc1cc([C@H]2c3cc4c(cc3O[C@@]3(O)COC(=O)[C@@H]23)OCO4)cc(OC)c1OC`, for which the TGI in test [1], in test [2], in [3], in [4], in test [5] and in test [6] was over 100 µM in each case. In addition, the TGI in [7], in test [8], in test [9] and in [10] was over 100 µM each time.
In the case of `C=C1C(=O)O[C@H]2[C@H]1CC/C(COC(=O)c1cc3cc(F)ccc3[nH]1)=C\CC[C@@]1(C)O[C@@H]21`, the GI50 is 1.67 µM in test [1]; 11.6 µM in test [2]; 11.1 µM in test [3]; 2.03 µM in [4]; 1.77 µM in test [5]; 7.1 µM in test [6]. Moreover, the GI50 in test [7] is 3.35 µM; in test [8], 1.15 µM; in test [9], 1.05 µM; in [10] it was 2.02 µM. The TGI was 3.19 µM in test [1]; 24.1 µM in [2]; 23.9 µM in test [3]; 17.6 µM in [4]; 4.09 µM in test [5]; 21.6 µM in [6]. The TGI in test [7] is 8.96 µM; in test [8] it was 3.34 µM; in [9], 2.46 µM; in test [10], 3.74 µM.
In the case of `COc1ccc2nc(N/N=C(\C)c3ccccn3)cc(C)c2c1`, the GI50 in test [1] is 0.215 µM; in [2] it was 0.269 µM; in [3], 1.82 µM; in [4], 0.0592 µM; in test [5] it was 0.571 µM; in [6], 0.0487 µM. The GI50 in [7] is 0.812 µM; in [8] it was 0.0916 µM; in test [9], 0.236 µM; in test [10], 0.348 µM. The TGI in test [1] came out at 1.17 µM; in test [2], 2.08 µM; in test [3], 7.49 µM; in test [4] it was 0.452 µM; in [5], 3.68 µM; in test [6], 0.391 µM. The TGI was 7.02 µM in test [7], 1.65 µM in [8], 1.28 µM in test [9] and 2.06 µM in test [10].
For `C=CCn1c2c(c3ccccc3c1=O)C(=O)c1ccccc1-2`, the TGI in test [1], in test [2], in test [3], in test [4], in test [5] and in test [6] was over 100 µM in each case. Also, the TGI in test [7], in test [8], in test [9] and in test [10] was over 100 µM each time.
Take `C[C@@H]1C[C@@H](O)[C@]2(O)O[C@@H]3C[C@@]4(C=O)[C@@H](CC[C@@H]5[C@@H]4CC[C@]4(C)[C@@H](C6=CC(=O)OC6)CC[C@]54O)C[C@H]3O[C@@H]2O1`: the TGI in test [1] was 0.111 µM; in test [3] it was 0.0919 µM and 0.22 µM and 0.288 µM; in test [4], 0.0128 µM and 0.0317 µM; in test [5], 0.102 µM and 0.299 µM and 0.194 µM; in [6], 0.0616 µM and 0.189 µM and 0.139 µM; in test [7], 0.115 µM and 0.0399 µM. Moreover, the TGI was 0.0605 µM and 0.25 µM in test [8]; 0.0624 µM and 0.165 µM and 0.0884 µM in test [9]; 0.582 µM and 0.134 µM in test [10]. Further, the GI50 in test [2] is 0.0636 µM and 0.0173 µM; in [3], 0.051 µM; in [4], 0.013 µM; in [5] it was 0.119 µM and 0.0652 µM; in test [6], 0.0365 µM and 0.00869 µM; in test [7], 0.00998 µM. For the same molecule, the GI50 in test [8] was 0.06 µM; in test [9], 0.0472 µM; in [10] it was 0.0273 µM.
